Where two headings read alike, the source gives them in different places.
Assays:
Type in all cases: cell-based
[1] = tested on: HEK293T (embryonic kidney); assay: MTS short-term cytotoxicity assay, HEK293T; settings: Homo sapiens, HEK-293T, 72 h, read-out: IC50 HEK293T
Method: (§1) Short-term anti-proliferative assays were carried out by two different assays using a panel of human cancer and non-malignant human cell lines. […] The transformed human embryonic kidney cell line HEK293T (wt KRAS) was sensitive to all tested drugs, including TMPyP4, a cationic porphyrin established as a G4 ligand, as well as the anticancer drug 5-fluorouracil (5-FU).
HCT116 human colon carcinoma cells, SW620 human colorectal adenocarcinoma and HEK293 T human embryonic kidney cells were grown in Dulbecco's modified Eagle's medium (DMEM) supplemented with 10% fetal bovine serum, and 1% antibiotic/antimycotic (Invitrogen, Grand Island, NY, USA) and maintained at 37°C in a humidified atmosphere of 5% CO2. Cells were seeded in 96 well plates at 5.000 cells/well. Twenty-four hours after cell plating, media was removed and replaced with fresh media containing test compounds and 5-FU (Sigma), a common cytotoxic agent used in colon cancer treatmen, or vehicle control (DMSO). Following 72 h of compound exposure, cell viability was evaluated using the CellTiter 96 AQueous Non-Radioactive Cell Proliferation Assay (Promega, Madison, WI, USA), using 3-(4,5-dimethylthiazol-2-yl)-5-(3-carboxymethoxyphenyl)-2-(4-sulfophenyl)-2H-tetrazolium, inner salt (MTS) as previously described. Cell viability data were expressed as mean ± SEM or mean ± SD from at least three independent experiments. IC50 and IC65 values were determined using GaphPad Prism v.5.00 (GraphPad Software). (Performed at Cell Function and Therapeutic Targeting Group, iMed.ULisboa)

[2] = tested on: ALT (telomerase negative human lung fibroblast); assay: SRB short-term cytotoxicity assay, ALT; settings: 96 h
Method: as §1
(§2) Human cell lines, breast carcinoma (MCF7), lung carcinoma (A549), pancreatic cancer (MIA PaCa2, Panc-1), immortalised telomerase-negative human lung fibroblast (ALT) and normal human lung fibroblast (WI-38), were all purchased from American Type Cell Culture (ATCC). Cell lines were maintained in appropriate medium supplemented with 10% fetal bovine serum (Invitrogen, UK), 2 mM L-glutamine (Invitrogen, Netherlands), and other components as specified by the suppliers. All cell lines were maintained at 37°C, 5% CO2, and routinely passaged. Short-term growth inhibition was measured using the SRB assay as described previously[43] (additional details described in Supplementary Information). […]
(§3) Sulforhodamine B (SRB) short-term cytotoxicity assay
(§4) Cells were seeded at appropriate densities into the wells of 96 well plates in their corresponding medium and incubated overnight to allow the cells to attach. Subsequently cells were exposed to various concentrations of freshly made solutions of drugs and incubated for 96 h. The cells were subsequently fixed with ice-cold trichloacetic acid (TCA) (10%, w/v) for 30 min and stained with 0.4% SRB dissolved in 1% acetic acid for 15 min.
All incubations were carried out at room temperature except for TCA fixation, which was at 4 °C. […]
After electrophoretic transfer onto nitrocellulose membranes, immunoblots were blocked with 5% milk solution, and next incubated overnight at 4 °C with primary mouse monoclonal antibody reactive to KRAS/p53 (#sc-30/sc-126; Santa Cruz Biotechnology Inc., Santa Cruz, CA, USA). […] Steady-state protein levels were expressed as mean ±SEM from at least three independent experiments.

[3] = tested on: WI-38 (lung fibroblast); assay: SRB short-term cytotoxicity assay, WI-38; settings: Homo sapiens, 96 h
Method: as §1, §2, §3, §4
All incubations were carried out at room temperature except for TCA fixation, which was at 4 °C. The IC50 value, the concentration required to inhibit cell growth by 50%, was determined from the mean absorbance at 540 nm for each drug concentration expressed as a percentage of the control untreated well absorbance. (Performed at School of Pharmacy, University College of London). […]
(#sc-30/sc-126; Santa Cruz Biotechnology Inc., Santa Cruz, CA, USA). […]

Structure (SMILES)	IC50 ([1]; MTS assay)	IC50 [2]	IC50 [3]	IC50 [1]
CCN(CC)CCCNc1ccc2[nH]c3c(c[n+](C)c4ccc(NCCCN(CC)CC)cc34)c2c1.[Cl-] [3d]	6.57 µM	–	–	–
CCN(CC)CCCNc1ccc2c(c1)[nH]c1c2c[n+](C)c2ccc(NCCCN(CC)CC)cc12.[Cl-] [3e]	3.12 µM	7.11 µM	10.1 µM	–
C[n+]1ccc(-c2c3nc(c(-c4cc[n+](C)cc4)c4ccc([nH]4)c(-c4cc[n+](C)cc4)c4ccc([nH]4)c(-c4cc[n+](C)cc4)c4nc2C=C4)C=C3)cc1 [TMPyP4, reference compound]	–	–	–	2.97 µM
Cn1cc2c3ccccc3nc-2c2cc(Br)ccc21 [2a, 2-bromo-5-methyl-indolo[3,2-c]quinoline]	0.3 µM	4.75 µM	6.26 µM	–
CCN(CC)CCCNc1ccc2c(c1)c1[nH]c3ccccc3c1c[n+]2C [2d]	0.64 µM	1.93 µM	4.86 µM	–

— paper PMC5382548 (Scientific Reports, 2015)
